Assay results from patent US20230085307A1, “PYRIDAZINONE COMPOUND AND HERBICIDE” (NISSAN CHEMICAL CORPORATION, priority 2019, published 2023).

Experiments:
barnyard grass [1] = assay: Test Example 3: herbicidal effect by foliage application, Wagner pot (Table 18, symbol H); type: in vivo, barnyard grass (Echinochloa crus-galli); details: amount of applied herbicide 320 g/ha
Outline: (§1)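 Plants were sown in alluvial soil held under 0.1–0.5 cm standing water and grown 14 days in a greenhouse at 25–30 °C. An emulsifiable formulation, water-diluted to the set dose, was then sprayed onto the foliage, and effects were scored three weeks later using previously defined criteria.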

Chinese sprangletop = assay: Test Example 3: herbicidal effect by foliage application, Wagner pot (Table 18, symbol D); type: in vivo, chinese sprangletop (Leptochloa chinensis); details: amount of applied herbicide 320 g/ha
Outline: as §1

rice flat sedge = assay: Test Example 3: herbicidal effect by foliage application, Wagner pot (Table 18, symbol E); type: in vivo, rice flat sedge (Cyperus iria); details: amount of applied herbicide 320 g/ha
Outline: as §1

southern crabgrass [2] = assay: Test Example 4: herbicidal effect by soil treatment (Table 19, symbol F); type: in vivo, southern crabgrass (Digitaria ciliaris); details: amount of applied herbicide 320 g/ha
Outline: (§2)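 Pre-emergence style soil spray: seeds under ~1.5 cm sterilized diluvial soil received a uniform coat of emulsion diluted to the predetermined herbicide amount. Greenhouse 25–30° C; readout at week three on previously defined criteria.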

green foxtail [3] = assay: Test Example 4: herbicidal effect by soil treatment (Table 19, symbol G); type: in vivo, green foxtail (Setaria viridis); details: amount of applied herbicide 320 g/ha
Outline: as §2

barnyard grass [4] = assay: Test Example 4: herbicidal effect by soil treatment (Table 19, symbol H); type: in vivo, barnyard grass (Echinochloa crus-galli); details: amount of applied herbicide 320 g/ha
Outline: as §2

wild oat [5] = assay: Test Example 4: herbicidal effect by soil treatment (Table 19, symbol I); type: in vivo, wild oat (Avena fatua); details: amount of applied herbicide 320 g/ha
Outline: as §2

blackgrass [6] = assay: Test Example 4: herbicidal effect by soil treatment (Table 19, symbol J); type: in vivo, blackgrass (Alopecurus myosuroides); details: amount of applied herbicide 320 g/ha
Outline: as §2

Italian ryegrass [7] = assay: Test Example 4: herbicidal effect by soil treatment (Table 19, symbol K); type: in vivo, Italian ryegrass (Lolium multiflorum); details: amount of applied herbicide 320 g/ha
Outline: as §2

windgrass [8] = assay: Test Example 4: herbicidal effect by soil treatment (Table 19, symbol L); type: in vivo, windgrass (Apera spica-venti); details: amount of applied herbicide 320 g/ha
Outline: as §2

velvetleaf [9] = assay: Test Example 4: herbicidal effect by soil treatment (Table 19, symbol M); type: in vivo, velvetleaf (Abutilon theophrasti); details: amount of applied herbicide 320 g/ha
Outline: as §2

redroot pigweed [10] = assay: Test Example 4: herbicidal effect by soil treatment (Table 19, symbol N); type: in vivo, redroot pigweed (Amaranthus retroflexus); details: amount of applied herbicide 320 g/ha
Outline: as §2

lambsquarters [11] = assay: Test Example 4: herbicidal effect by soil treatment (Table 19, symbol O); type: in vivo, lambsquarters (Chenopodium album); details: amount of applied herbicide 320 g/ha
Outline: as §2

chickweed [12] = assay: Test Example 4: herbicidal effect by soil treatment (Table 19, symbol P); type: in vivo, common chickweed (Stellaria media); details: amount of applied herbicide 320 g/ha
Outline: as §2

persian speedwell [13] = assay: Test Example 4: herbicidal effect by soil treatment (Table 19, symbol R); type: in vivo, Persian speedwell (Veronica persica); details: amount of applied herbicide 320 g/ha
Outline: as §2

southern crabgrass [14] = assay: Test Example 5: herbicidal effect by foliage application, plastic box (Table 20, symbol F); type: in vivo, southern crabgrass (Digitaria ciliaris); details: foliage application, 320 g/ha, evaluated three weeks after application
Outline: (§3)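 Plants were sown into sterilized diluvial soil under about 1.5 cm cover and kept in a greenhouse at 25° C. to 30° C. Fourteen days on, foliage received an even spray of the diluted emulsion. Herbicidal or crop effect was judged three weeks afterwards.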

green foxtail [15] = assay: Test Example 5: herbicidal effect by foliage application, plastic box (Table 20, symbol G); type: in vivo, green foxtail (Setaria viridis); details: foliage application, 320 g/ha, evaluated three weeks after application
Outline: as §3

barnyard grass [16] = assay: Test Example 5: herbicidal effect by foliage application, plastic box (Table 20, symbol H); type: in vivo, barnyard grass (Echinochloa crus-galli); details: foliage application, 320 g/ha, evaluated three weeks after application
Outline: as §3

wild oat [17] = assay: Test Example 5: herbicidal effect by foliage application, plastic box (Table 20, symbol I); type: in vivo, wild oat (Avena fatua); details: foliage application, 320 g/ha, evaluated three weeks after application
Outline: as §3

blackgrass [18] = assay: Test Example 5: herbicidal effect by foliage application, plastic box (Table 20, symbol J); type: in vivo, blackgrass (Alopecurus myosuroides); details: foliage application, 320 g/ha, evaluated three weeks after application
Outline: as §3

Italian ryegrass [19] = assay: Test Example 5: herbicidal effect by foliage application, plastic box (Table 20, symbol K); type: in vivo, Italian ryegrass (Lolium multiflorum); details: foliage application, 320 g/ha, evaluated three weeks after application
Outline: as §3

windgrass [20] = assay: Test Example 5: herbicidal effect by foliage application, plastic box (Table 20, symbol L); type: in vivo, windgrass (Apera spica-venti); details: foliage application, 320 g/ha, evaluated three weeks after application
Outline: as §3

velvetleaf [21] = assay: Test Example 5: herbicidal effect by foliage application, plastic box (Table 20, symbol M); type: in vivo, velvetleaf (Abutilon theophrasti); details: foliage application, 320 g/ha, evaluated three weeks after application
Outline: as §3

redroot pigweed [22] = assay: Test Example 5: herbicidal effect by foliage application, plastic box (Table 20, symbol N); type: in vivo, redroot pigweed (Amaranthus retroflexus); details: foliage application, 320 g/ha, evaluated three weeks after application
Outline: as §3

lambsquarters [23] = assay: Test Example 5: herbicidal effect by foliage application, plastic box (Table 20, symbol O); type: in vivo, lambsquarters (Chenopodium album); details: foliage application, 320 g/ha, evaluated three weeks after application
Outline: as §3

chickweed [24] = assay: Test Example 5: herbicidal effect by foliage application, plastic box (Table 20, symbol P); type: in vivo, common chickweed (Stellaria media); details: foliage application, 320 g/ha, evaluated three weeks after application
Outline: as §3

persian speedwell [25] = assay: Test Example 5: herbicidal effect by foliage application, plastic box (Table 20, symbol R); type: in vivo, Persian speedwell (Veronica persica); details: foliage application, 320 g/ha, evaluated three weeks after application
Outline: as §3

C#Cc1ccc2sc(-c3ccccc3OC)c(-c3c(O)c(C)nn(C)c3=O)c2c1 [2-187]
herbicidal effect on H: barnyard grass (barnyard grass [1]): 4 (Herbicidal rate of 70% or more and less than 90%)
herbicidal effect on D: Chinese sprangletop (Chinese sprangletop): 0 (Herbicidal rate of 5% or less (almost no effect))
herbicidal effect on E: rice flat sedge (rice flat sedge): 0 (Herbicidal rate of 5% or less (almost no effect))
F: southern crabgrass, herbicidal effect rating (southern crabgrass [2]): 1 (Herbicidal rate of 5% or more and less than 20%)
G: green foxtail, herbicidal effect rating (green foxtail [3]): 4 (Herbicidal rate of 70% or more and less than 90%)
H: barnyard grass, herbicidal effect rating (barnyard grass [4]): 3 (Herbicidal rate of 40% or more and less than 70%)
I: wild oat, herbicidal effect rating (wild oat [5]): 0 (Herbicidal rate of 5% or less (almost no effect))
J: blackgrass, herbicidal effect rating (blackgrass [6]): 4 (Herbicidal rate of 70% or more and less than 90%)
K: Italian ryegrass, herbicidal effect rating (Italian ryegrass [7]): 4 (Herbicidal rate of 70% or more and less than 90%)
L: windgrass, herbicidal effect rating (windgrass [8]): 5 (Herbicidal rate of 90% or more (almost completely withered))
M: velvetleaf, herbicidal effect rating (velvetleaf [9]): 2 (Herbicidal rate of 20% or more and less than 40%)
N: redroot pigweed, herbicidal effect rating (redroot pigweed [10]): 4 (Herbicidal rate of 70% or more and less than 90%)
O: lambsquarters, herbicidal effect rating (lambsquarters [11]): 4 (Herbicidal rate of 70% or more and less than 90%)
P: chickweed, herbicidal effect rating (chickweed [12]): 3 (Herbicidal rate of 40% or more and less than 70%)
R: persian speedwell, herbicidal effect rating (persian speedwell [13]): 0 (Herbicidal rate of 5% or less (almost no effect))
herbicidal effect on F: southern crabgrass (criteria 0-5) (southern crabgrass [14]): 4 (Herbicidal rate of 70% or more and less than 90%)
herbicidal effect on G: green foxtail (criteria 0-5) (green foxtail [15]): 3 (Herbicidal rate of 40% or more and less than 70%)
herbicidal effect on H: barnyard grass (criteria 0-5) (barnyard grass [16]): 1 (Herbicidal rate of 5% or more and less than 20%)
herbicidal effect on I: wild oat (criteria 0-5) (wild oat [17]): 0 (Herbicidal rate of 5% or less (almost no effect))
herbicidal effect on J: blackgrass (criteria 0-5) (blackgrass [18]): 5 (Herbicidal rate of 90% or more (almost completely withered))
herbicidal effect on K: Italian ryegrass (criteria 0-5) (Italian ryegrass [19]): 4 (Herbicidal rate of 70% or more and less than 90%)
herbicidal effect on L: windgrass (criteria 0-5) (windgrass [20]): 5 (Herbicidal rate of 90% or more (almost completely withered))
herbicidal effect on M: velvetleaf (criteria 0-5) (velvetleaf [21]): 5 (Herbicidal rate of 90% or more (almost completely withered))
herbicidal effect on N: redroot pigweed (criteria 0-5) (redroot pigweed [22]): 5 (Herbicidal rate of 90% or more (almost completely withered))
herbicidal effect on O: lambsquarters (criteria 0-5) (lambsquarters [23]): 4 (Herbicidal rate of 70% or more and less than 90%)
herbicidal effect on P: chickweed (criteria 0-5) (chickweed [24]): 5 (Herbicidal rate of 90% or more (almost completely withered))
herbicidal effect on R: persian speedwell (criteria 0-5) (persian speedwell [25]): 5 (Herbicidal rate of 90% or more (almost completely withered))
